BigSolDB 2.1

`C=C1C[C@]23C[C@H]1CC[C@H]2[C@@]12CC[C@H](O)[C@@](C)(C(=O)O1)[C@H]2[C@@H]3C(=O)O` showed a solubility (mole fraction) (in acetone, 278.15 K) of 0.053, a solubility (mole fraction) (in acetone, 283.15 K) of 0.057 and a solubility (mole fraction) (in acetone, 288.15 K) of 0.0596. It also gave a solubility (mole fraction) (in acetone, 293.15 K) of 0.0645, a solubility (mole fraction) (in acetone, 298.15 K) of 0.0692 and a solubility (mole fraction) (in acetone, 303.15 K) of 0.0759. It also gave a solubility (mole fraction) (in acetone, 308.15 K) of 0.0801, a solubility (mole fraction) (in acetone, 313.15 K) of 0.0862 and a solubility (mole fraction) (in acetone, 318.15 K) of 0.0917. For the same compound, the solubility (mole fraction) (in acetone, 323.15 K) was 0.0983, the solubility (mole fraction) (in acetone, 328.15 K) was 0.106 and the solubility (mole fraction) (in acetone, 333.15 K) was 0.112. The solubility (mole fraction) (in acetonitrile, 278.15 K) was 0.00391, the solubility (mole fraction) (in acetonitrile, 283.15 K) was 0.00457 and the solubility (mole fraction) (in acetonitrile, 288.15 K) was 0.00529. The solubility (mole fraction) (in acetonitrile, 293.15 K) was 0.00647, the solubility (mole fraction) (in acetonitrile, 298.15 K) was 0.00776 and the solubility (mole fraction) (in acetonitrile, 303.15 K) was 0.00907. For the same compound, the solubility (mole fraction) (in acetonitrile, 308.15 K) was 0.0108, the solubility (mole fraction) (in acetonitrile, 313.15 K) was 0.0124 and the solubility (mole fraction) (in acetonitrile, 318.15 K) was 0.0135. It also gave a solubility (mole fraction) (in acetonitrile, 323.15 K) of 0.0149, a solubility (mole fraction) (in acetonitrile, 328.15 K) of 0.0168 and a solubility (mole fraction) (in acetonitrile, 333.15 K) of 0.0188. For the same compound, the solubility (mole fraction) (in ethanol, 278.15 K) was 0.000809, the solubility (mole fraction) (in ethanol, 283.15 K) was 0.000911 and the solubility (mole fraction) (in ethanol, 288.15 K) was 0.00107. The solubility (mole fraction) (in ethanol, 293.15 K) was 0.00118, the solubility (mole fraction) (in ethanol, 298.15 K) was 0.00133 and the solubility (mole fraction) (in ethanol, 303.15 K) was 0.00159. It also gave a solubility (mole fraction) (in ethanol, 308.15 K) of 0.00187, a solubility (mole fraction) (in ethanol, 313.15 K) of 0.00217 and a solubility (mole fraction) (in ethanol, 318.15 K) of 0.00257. It also gave a solubility (mole fraction) (in ethanol, 323.15 K) of 0.00273, a solubility (mole fraction) (in ethanol, 328.15 K) of 0.00318 and a solubility (mole fraction) (in ethanol, 333.15 K) of 0.00387. It also gave a solubility (mole fraction) (in ethyl acetate, 278.15 K) of 0.0105, a solubility (mole fraction) (in ethyl acetate, 283.15 K) of 0.0118 and a solubility (mole fraction) (in ethyl acetate, 288.15 K) of 0.0134. It also gave a solubility (mole fraction) (in ethyl acetate, 293.15 K) of 0.0157, a solubility (mole fraction) (in ethyl acetate, 298.15 K) of 0.0172 and a solubility (mole fraction) (in ethyl acetate, 303.15 K) of 0.0195. The solubility (mole fraction) (in ethyl acetate, 308.15 K) was 0.0211, the solubility (mole fraction) (in ethyl acetate, 313.15 K) was 0.0239 and the solubility (mole fraction) (in ethyl acetate, 318.15 K) was 0.0265. For the same compound, the solubility (mole fraction) (in ethyl acetate, 323.15 K) was 0.0299, the solubility (mole fraction) (in ethyl acetate, 328.15 K) was 0.0325 and the solubility (mole fraction) (in ethyl acetate, 333.15 K) was 0.0357. The solubility (mole fraction) (in isopropanol, 278.15 K) was 0.0691, the solubility (mole fraction) (in isopropanol, 283.15 K) was 0.0745 and the solubility (mole fraction) (in isopropanol, 288.15 K) was 0.0775. It also gave a solubility (mole fraction) (in isopropanol, 293.15 K) of 0.0859, a solubility (mole fraction) (in isopropanol, 298.15 K) of 0.0916 and a solubility (mole fraction) (in isopropanol, 303.15 K) of 0.0969. The solubility (mole fraction) (in isopropanol, 308.15 K) was 0.103, the solubility (mole fraction) (in isopropanol, 313.15 K) was 0.11 and the solubility (mole fraction) (in isopropanol, 318.15 K) was 0.12. For the same compound, the solubility (mole fraction) (in isopropanol, 323.15 K) was 0.123, the solubility (mole fraction) (in isopropanol, 328.15 K) was 0.131 and the solubility (mole fraction) (in isopropanol, 333.15 K) was 0.14. For the same compound, the solubility (mole fraction) (in methanol, 278.15 K) was 0.0466, the solubility (mole fraction) (in methanol, 283.15 K) was 0.051 and the solubility (mole fraction) (in methanol, 288.15 K) was 0.0559. For the same compound, the solubility (mole fraction) (in methanol, 293.15 K) was 0.0637, the solubility (mole fraction) (in methanol, 298.15 K) was 0.0705 and the solubility (mole fraction) (in methanol, 303.15 K) was 0.0743. The solubility (mole fraction) (in methanol, 308.15 K) was 0.0805, the solubility (mole fraction) (in methanol, 313.15 K) was 0.0882 and the solubility (mole fraction) (in methanol, 318.15 K) was 0.0933. For the same compound, the solubility (mole fraction) (in methanol, 323.15 K) was 0.101, the solubility (mole fraction) (in methanol, 328.15 K) was 0.11 and the solubility (mole fraction) (in methanol, 333.15 K) was 0.121. For the same compound, the solubility (mole fraction) (in n-butanol, 278.15 K) was 0.0588, the solubility (mole fraction) (in n-butanol, 283.15 K) was 0.0613 and the solubility (mole fraction) (in n-butanol, 288.15 K) was 0.0674. The solubility (mole fraction) (in n-butanol, 293.15 K) was 0.0723, the solubility (mole fraction) (in n-butanol, 298.15 K) was 0.0762 and the solubility (mole fraction) (in n-butanol, 303.15 K) was 0.0798. For the same compound, the solubility (mole fraction) (in n-butanol, 308.15 K) was 0.0836, the solubility (mole fraction) (in n-butanol, 313.15 K) was 0.0872 and the solubility (mole fraction) (in n-butanol, 318.15 K) was 0.0931. The solubility (mole fraction) (in n-butanol, 323.15 K) was 0.1, the solubility (mole fraction) (in n-butanol, 328.15 K) was 0.109 and the solubility (mole fraction) (in n-butanol, 333.15 K) was 0.119. It also gave a solubility (mole fraction) (in water, 278.15 K) of 9e-06, a solubility (mole fraction) (in water, 283.15 K) of 1.2e-05 and a solubility (mole fraction) (in water, 288.15 K) of 1.7e-05. It also gave a solubility (mole fraction) (in water, 293.15 K) of 2.1e-05, a solubility (mole fraction) (in water, 298.15 K) of 2.8e-05 and a solubility (mole fraction) (in water, 303.15 K) of 3.4e-05. It also gave a solubility (mole fraction) (in water, 308.15 K) of 4.4e-05, a solubility (mole fraction) (in water, 313.15 K) of 5.3e-05 and a solubility (mole fraction) (in water, 318.15 K) of 6.1e-05. The solubility (mole fraction) (in water, 323.15 K) was 7.3e-05, the solubility (mole fraction) (in water, 328.15 K) was 9.2e-05 and the solubility (mole fraction) (in water, 333.15 K) was 0.00012.
